The results in this text go back to patent US5200397A, “Use of peptide analogs of thrombospondin for the inhibition of angiogenic activity” (W. R. Grace & Co.-Conn., priority 1991, dated 1993).

Residues, ends and D or L forms follow the SMILES beside them. No end group written: not given here.

The test system of data set [1] is chicken chorioallantoic membrane (CAM). Description: CAM assay (antiangiogenesis, Avascular Index). In kind it is in vivo. Conditions: any dosage. As for the experimental part:
Assays for antiangiogenic properties on the chicken chorioallantoic membrane (CAM) were performed using the "egg culture" technique (Auerbach, Dev. Biol. (1974) 41:391 and Crum, Science (1985) 230:1375). The fertilized White Leghorn egg (Truslow Farms, Chestertown, Md.) used in this method was removed from the shell on day 3 (after fertilization) and placed in a culture dish. The "cultured egg" was maintained through day 6 at 37° C. in an atmosphere of 2% CO2 and a relative humidity of 70%. After day 6 incubation was carried out without supplemental CO2.
Test materials were implanted on the CAM using low gelling temperature agarose pellets (Castellot, J. Cell Physiol. (1986) 127:323). This assay was performed twice. In the first assay, the test materials included pellets containing 90, 9, and 0.9 μg of peptide p1 (SEQ ID No. 1) diluted in water. […]
Antiangiogenesis was examined in an assay for inhibition of embryonic angiogenesis as described by Fenselau in "Growth and Maturation Factors" (1984) 2:175. After 1 or 2 days the samples were evaluated for their antiangiogenic effects on the CAM. […]
Inhibition of embryonic angiogenesis was also quantitated by measuring the size of the affected zone surrounding the pellet as well as the portion of the pellet that borders the affected region. […]

Data set [2] relates to Mouse B16 F10 melanoma cells. Description: Direct adhesion assay (melanoma cells to adsorbed ligand). The format is cell-based. Conditions: for Adhesion as % Thrombospondin: absorbed compound 2 μg, B16 F10 melanoma cells. As for the experimental part: It is believed that thrombospondin acts in metastasis through its adhesive properties. […] In this assay, wells of a 96-well microtiter dish (Costar, 10 Cambridge, Massachusetts) were incubated for two to three hours with 50 μl of a 40 μg/ml solution of various ligands in 20 mM NaCl, pH 7.3. Thrombospondin (purified by the method of Tuszynski et al., J. Biol. Chem. (1985) 260:12240-5), fibronectin (Sigma Chemical Co., Missouri) served as the positive control. Bovine serum albumin (BSA) (Sigma Chemical Co.) served as the negative control. […] Following peptide adhesion to the microtiter dish, the wells were aspirated, treated with 200 μl phosphate buffered saline (PBS) containing 1% BSA for 1 hour and then washed three more times with 200 μl PBS.
Mouse B16 F10 melanoma cells were grown and harvested during log phase of growth using standard procedures. The harvested cells were washed two times in serum-free Dulbecco's minimum essential medium (DMEM) (Flow Laboratories) and suspended in DMEM at a final concentration of 4×10^5 cells/ml. Of the cell suspension 100 μl was added to each well of the microtiter dish containing the various ligands and the dish incubated at 37° C. in a CO2 incubator for 1 hour. Nonadherent cells were removed by aspiration and the wells washed three times with 200 μl of PBS. The total cell-associated protein was determined by dissolving the attached cells directly in the microtiter wells with 200 μl of the Pierce BCA working solution (Pierce Chem. Co. Booklet No. 23225 (1987)). The plate was covered with an adhesive mylar sheet (Flow Labs) and incubated at 60° C. for 30 minutes. Plates were allowed to cool to room temperature, cover sheets were removed, and the absorbance of each well was determined at 562 nm with a microtiter plate reader (Biotek, Burlington, Vt.)

In another data set the test system is platelets. Put plainly: Direct platelet adhesion assay. In kind it is cell-based. Conditions: for Adherence as % Control: wells treated with 50 μl of 40 μg/ml solution, platelets. As for the experimental part: The number of adherent platelets was essentially determined as previously described (Tuszynski et al., Anal. Bio. supra). Briefly, 100 μl of 5×10^8 platelets/ml washed as previously described (Tuszynski, et al., Blood 72, 109-225, 1988) were added to microtiter plates, the wells of which were treated with 50 μl of a 40 μg/m] peptide or protein solution (Hepes buffered saline, pH 7.4). Solutions were dried at room temperature after incubation in a fume hood for two hours. Wells were blocked for one hour with 1% BSA. Platelets (100 μl) were incubated in the wells for 30 minutes and non-adherent platelets were removed by aspiration. Wells were washed 3X with 200 μl of Hepes buffered saline, pH 7.4. The number of adherent platelets was determined by measuring the platelet-derived protein using the BCA protein assay.

A further data set has as its system intact thrombospondin. Description: Competitive assay, thrombospondin specific adhesion to melanoma cells. To be noted: for % of buffer control: melanoma cell adhesion to absorbed thrombospondin. The format is cell-based. The method, then: The direct adhesion assay of Example 5 was modified to measure the ability of the peptide compounds of the invention to compete with intact thrombospondin for adhesion to melanoma cells.
In this assay, intact thrombospondin is absorbed onto microtiter dishes as described in Example 5. The assay is similar to Example 5 except that before the melanoma cells are added to the microtiter dishes they are preincubated for 15 minutes with 100 μg/ml of various ligands.

For a further data set, the system named is fibronectin (FN). Description: Competitive platelet adhesion assay, absorbed fibronectin. Conditions: 250 μg/ml; absorbed protein FN; platelets. In kind it is cell-based. As for the experimental part: The direct adhesion assay of Example 7 was modified to measure the ability of the peptide compounds of the invention to compete with intact thrombospindin or fibronectin for adhesion of platelets.
In this assay, thrombospondin (TSP) or fibronectin (FN) was absorbed onto microtiter dish as described in Example 7. The assay was similar to Example 7 except that before platelets were added to the microtiter dishes they were preincubated with 250 μg/ml of various ligands.

The test system of data set [3] is Platelet-rich-plasma (PRP). Put plainly: Platelet aggregation assay (ADP, platelet-rich plasma). In kind it is cell-based. Conditions: 1 μM ADP. As for the experimental part: Platelet aggregation was monitored on a single-channel aggregometer equipped to measure luminescence (Chromo-Log, Havertown, Pa.). Platelet-rich-plasma (PRP) was obtained from whole blood anti-coagulated with 0.38% Sodium Citrate by centrifugation at 150 X g for 20 minutes. Peptides were added to 0.5 ml of PRP and aggregation initiated with 1 μM ADP. Buffer blanks contained diluent (water) but no peptide.

Data set [4] concerns B16 F10 mouse melanoma cells. Put plainly: Antimetastatic activity in vivo (lung tumors). More on the design: species or system C57 black mice. To be noted: for % buffer control (number of lung tumors): intravenous with cells, 16 days. An excerpt:
After 16 days, the mice were sacrificed and the number of lung tumors counted.

Another data set has as its system collagenase. Put plainly: Collagenase inhibition assay (Johnson-Wint radiometric). The format is biochemical. To be noted: 2 μg dose. As for the experimental part: Collagenase inhibitory activity was determined as described by Johnson-Wint (Anal. Biochem. (1980) 104:175). Peptides p1 (SEQ ID No. 1) and p27 (SEQ ID NO. 19) were tested in the Johnson-Witt radiometric enzyme assay for collagenase activity at doses of 50 ng, 100 ng, 250 ng, 500 ng, 1 μg and 2μg. Peptide p27 was inhibitory (-21%) at the 2μg dose.

As for `CC(C)[C@H](NC(=O)[C@H](CO)NC(=O)[C@H](CS)NC(=O)[C@@H]1CCCN1C(=O)[C@H](CO)NC(=O)[C@@H](N)Cc1c[nH]c2ccccc12)C(=O)N[C@H](C(=O)N[C@@H](CS)C(=O)NCC(=O)O)[C@@H](C)O` [p1] (H-WSPCSVTCG-OH), the “toxicity to embryo (abnormal development, embryo death)” value in data set [1] is recorded as “not toxic”.

Take “Bovine serum albumin [BSA, reference compound]”: in data set [2], the “Adhesion as % Thrombospondin” value is reported as 13%. In addition, the “Adherence as % Control” value in the data set on platelets was 0.7%.

As to Thrombospondin [reference compound], the “Adhesion as % Thrombospondin” value in data set [2] was 100%. Further, in the data set on platelets, the “Adherence as % Control” value amounted to 100%.

For “WSPCSVTCG-NH2 (cysteine pairing not given here) [p6]”, the “Adhesion as % Thrombospondin” value in data set [2] is given as 70%. Also, the “adhesive properties (in words)” value in data set [2] (melanoma cell adhesion, Table 1) is given as “display adhesive properties”. Also, the “competition with thrombospondin for adhesion of melanoma cells (in words)” value in the data set with intact thrombospondin is “compete to a lesser degree”. For the same compound, the “% of buffer control” value came to 89% with intact thrombospondin (100 μg/ml), 74% with intact thrombospondin (200 μg/ml) and 74% with intact thrombospondin (300 μg/ml). Besides, the “adherence to platelets (in words)” value with platelets is “adhere to platelets”. Besides, in the data set with platelets, the “Adherence as % Control” value is 38%. In addition, the “% Buffer Control” value in the data set on fibronectin (FN) is listed as 96%. Further, the “inhibition of platelet aggregation (in words, FIG. 1)” value in data set [3] is listed as “inhibit platelet aggregation”. The entries for the “% buffer control (number of lung tumors)” value in data set [4] (30 μg/mouse), in data set [4] (100 μg/mouse) and in data set [4] (300 μg/mouse) were 91%, 102% and 50%, respectively. Also, in data set [4] (mouse, in vivo), the “number of lung tumors versus controls (in words)” value is given as “statistically fewer tumors than controls”. Further, the “size of lung tumors (in words)” value in data set [4] (mouse, in vivo) is on record as “smaller in size”.

In the case of fibronectin, the “Adherence as % Control” value in the data set on platelets was determined as 83%.

“p27: Peptide p27 (SEQ ID NO. 19) tested in the collagenase assay; sequence not printed (WTSCSTSCG)”: the “collagenase activity, inhibition” value in the data set with collagenase is recorded as -21%.
